What is called melting point is the temperature of the solid-liquid transition.

Residues, ends and D or L forms follow the SMILES beside them. *: point of attachment. Cbz = O=C(OCc1ccccc1)*

86 compounds from a melting point compilation (Tetko et al.; mined from patent text by program, amines drawn as free bases though some values may be those of a salt) can be followed below.

Turning to `COc1ccccc1N1CCN(CCC(C(N)=O)(c2ccccn2)c2ccccc2[N+](=O)[O-])CC1` (stereo unspecified), the melting point was 63 to 72 °C. `Cc1ccc2c(cc(CCCC(=O)O)n2S(=O)(=O)c2ccccc2)n1` yielded a melting point of 172 to 180 °C. `CN(C)CCNNc1ccc(CO)c2oc3ccc(O)cc3c(=O)c12` showed a melting point of 122 to 123 °C.

In turn, `Cc1cn(Cc2ccc3c(c2)-c2[nH]nc(-c4ccsc4)c2C3)cn1` gave a melting point of 122 to 125 °C. Turning to `O=C(O)CCCc1cc2cc(Cl)ccc2n1S(=O)(=O)c1ccc2c(c1)CNCC2`, the melting point was greater than 250 °C. `CC(C)C(C(=O)O)n1nc(Br)c(Br)c1Br` (stereo unspecified) gave a melting point of 92 to 95 °C. `CCOC(=O)c1ccccc1C(=O)c1ccc2c(c1)C(C)(C)CCC2(C)C`: the melting point is 58 to 59 °C. On to `OC(c1ccc(Cl)cc1)(c1cccnc1)c1ccc2noc(-c3cccc(Cl)c3)c2c1` (stereo unspecified), for which the melting point stood at 199 °C. As to `CC(=O)SCCC(=O)N1CC[C@H](SC(C)=O)[C@H]1C(=O)O`, the melting point lay in the range of 145 to 148 °C. The result for `Cc1nn(-c2ccc(F)cc2)cc1C(=O)Nc1ccc(N2CCC(O)CC2)c(C#N)c1` reads 224 to 225 °C. Compound `COc1cc(OC)nc(NC(=O)NS(=O)(=O)c2c3ccccc3nn2C)n1` displayed a melting point of 199 to 202 °C. As for `CC(=O)OCc1nc2ccc(Oc3cc(C)c(OC(C)=O)c(C)c3C)nc2n1C`, the melting point was in the range of 128 to 129 °C. On to `CCOC(=O)c1[nH]c2cccc3c2c1CCC3O` (stereo unspecified), for which the melting point lay within 166 to 170 °C. With `COc1cc(CN2C(=O)c3ccsc3CC2C(=O)O)cc(OC)c1OC` (stereo unspecified), the melting point stood at 208 °C. In turn, `CCc1c(C(=O)c2cc(C)cc(C)c2)n(CCC2=CCCC2)c(=O)[nH]c1=O` came in with a melting point of 211 to 213 °C.

On to `O=C/C=C/C1=C(c2ccc(F)cc2)C=C(c2ccc(F)cc2)CC12CCCC2`, for which the melting point is 120 to 124 °C. In the case of `COCn1c(C(=O)O)cc2cccc(NS(=O)(=O)c3ccccn3)c21`, the melting point is 199 to 200 °C. `CC(Cc1ccc(OCc2ccccc2)cc1)NCC(O)c1cc2ccccc2o1` (stereo unspecified) registered a melting point of 111 to 122 °C. The compound `CC(C)(C)c1ccc(Oc2ccc(NC(=O)c3ccccc3C(c3ccc(O)cc3)c3ccc(O)cc3)cn2)cc1` displayed a melting point of 121 to 125 °C. `O=C(Nc1cccc(F)c1)c1ccccc1O` displayed a melting point of 157 to 159 °C. Regarding `Cc1ccc(S(=O)(=O)N[C@@H](C)C(=O)N[C@@H](Cc2ccccc2)C(=O)OCc2ccccc2)cc1`, the melting point fell in the range of 109 to 110 °C. For `CN(C(=O)Nc1ccc(F)cc1F)c1cnc2ccc(Cl)cc2c1-c1ccccc1`, the melting point was 200 to 201 °C. The result for `CCOC(=O)c1nc(N)sc1-c1cn2ccc(C)cc2n1` reads 278 to 280 °C; that for `CS(=O)(=O)c1ccc(-c2cnn(CC(F)(F)F)c(=O)c2Sc2ccc(F)c(Cl)c2)cc1`, 142 to 145 °C. `CCOC(=O)COc1ccc(N)cc1Cl` had a melting point of 59 to 62 °C. Consider `COc1cc(N=C(NC#N)Oc2ccccc2)cc(C(F)(F)F)c1`, for which the melting point lay within 168 to 170 °C.

On to `N#Cc1ccc2nc(Cl)c3ccccc3c(=O)c2c1`, for which the melting point lay within 217 to 220 °C. Take `COc1ccc2[nH]c(C(=O)N3CC(CCl)c4c3cc(N)c3ccccc43)cc2c1` (stereo unspecified): the melting point was in the range of 250 to 255 °C. Compound `C=CC(C)C1CCC2C3CCC4=CC(O)CCC4(C)C3CCC12C` (stereo unspecified) gave a melting point of 121 to 123 °C. As to `O=c1cnc2cc3[nH]c(-c4ccncc4)nc3cc2[nH]1`, the melting point was greater than 320 °C. In the case of `C#CCn1nc(-c2ccc(Cl)cc2)n(CC)c1=O` it was 115 to 119 °C; in that of `CNC(=O)NCC1OC(n2cc(C)c(=O)[nH]c2=O)CC1O` (stereo unspecified), 238 to 239 °C. As for `CC(=O)OC(C)Cc1ccc(-c2ccc(C(C)=O)cc2)cc1` (stereo unspecified), the melting point lay in the range of 60 to 61 °C.

Compound `O=c1c([N+](=O)[O-])c[nH]n1-c1c(Cl)cc(C(F)(F)F)cc1Cl` yielded a melting point of 100 to 108 °C. Consider `Cc1cccc(-c2n[nH]cc2-c2ccc(F)c(-c3c[nH]c(CC(C)(C)O)n3)c2)n1`, for which the melting point fell in the range of 136 to 140 °C. For `C=CCNC(=O)N1CC(OCc2ccc(F)cc2)C1`, the melting point lay in the range of 97 to 99 °C. In the case of `CCC(C(=O)Nc1c(C)cccc1C)N(C)C` (stereo unspecified) it was 155 to 157 °C; in that of `CCN(C1CCN(C)CC1)S(=O)(=O)c1ccc(Nc2nccc(Nc3ccc(F)cc3)n2)cc1`, 154 °C.

Turning to `CCOP(=O)(CC(N)=S)OCC`, the melting point lay in the range of 73 to 75 °C.

`CCn1c(=O)c2[nH]c(/C=C/c3ccc4c(c3)OCO4)nc2n(CC)c1=O` came in with a melting point greater than 275 °C. In the case of `CCON=C(C(=O)OC)c1nccc(N)n1` it was 105 to 110 °C; in that of `CC(C)C[C@H](NC(=O)CCS)C(=O)O`, 131 to 132 °C.

`COC(=O)C1=C(C#N)NC(C)=C(C(=O)OCC(C)(C)C)C1c1ccccc1C#N` (stereo unspecified) showed a melting point of 173 to 174 °C. `Nc1c(Cl)cc(Cn2nc(-c3ccc(Cl)c(Cl)c3)oc2=O)c(O)c1Cl` yielded a melting point of 200 to 202 °C. In turn, `CCn1c2ccccc2c2c3c(ccc21)c(C=O)cn3C` registered a melting point of 144 to 146 °C. Compound `COCCNc1c([N+](=O)[O-])cnc2ccccc12` registered a melting point of 113 to 115 °C. The result for `O=C(O)c1cc(S(=O)(=O)N2CCCCC2)c(Cl)cc1Cl` reads 200 to 205 °C.

In turn, `COc1ccc(C(=O)Nc2ccccc2)cc1Nc1cc(Cl)cc(Cl)c1` yielded a melting point of 207 to 208 °C.

As to `Cc1cccc(C(=O)NC(Nc2c(Nc3cccnc3)c(=O)c2=O)C(C)(C)Cc2ccncc2)c1` (stereo unspecified), the melting point was in the range of 219 to 221 °C.

In the case of `CCC(C)(C)Nc1c(NCc2cccc(C)c2C)c(=O)c1=O`, the melting point was 196 to 198 °C. As for `CCCn1nc2c(N)nc3ccccc3c2c1CCNC(C)=O`, the melting point was in the range of 185 to 186 °C. The result for `COc1cccc(Oc2c(NS(=O)(=O)c3ccc(C(C)(C)C)cc3)ncnc2OCCOc2ncc(-c3ccccc3)cn2)c1` reads 160 to 161 °C. In the case of `CCc1c2nc(-c3cc(S(C)(=O)=O)ccc3OCC(C)C)[nH]c(=O)c2nn1CCN1CCOCC1` it was 268 to 273 °C; in that of `O=C(CNc1ccccc1)Nc1ccc(Cl)cc1C(=O)O`, 210 to 212 °C.

The compound `NS(=O)(=O)c1cc(C(=O)O)cc([N+](=O)[O-])c1Nc1ccc(Cl)cc1` returned a melting point of 241 to 243 °C. As to `Cn1nc2c(N)nc3ccccc3c2c1CCc1ccccc1`, the melting point lay in the range of 210 to 212 °C. In turn, `N#Cc1ncn2c1N(C(=O)CN1CCN(Cc3ccccc3)CC1)CC=C2c1cccc(C(F)(F)F)c1` showed a melting point of 167 to 169 °C. As for `O=S(=O)(c1ccc(Oc2ccccc2)cc1)c1cccc(S(=O)(=O)c2ccc(Oc3ccccc3)cc2)c1`, the melting point was in the range of 70 to 75 °C. `O=C(N[C@@H](Cc1c[nH]c2ccccc12)C(=O)O)c1ccc(Br)cc1` came in with a melting point of 162 to 163 °C. With `N#CC1=C(C2=CCNCC2)Nc2n[nH]cc2C1c1cccc2nonc12` (stereo unspecified), the melting point stood at 180 °C.

`COc1ccc(-c2ccc(C=O)c(Cl)c2)cc1F` displayed a melting point of 116 to 118 °C.

The compound `CCOCCCNC(=O)Nc1ccccc1CCc1cc(C(C)(C)C)c(O)c(C(C)(C)C)c1` came in with a melting point of 136 to 137 °C. In the case of `COCCOc1ccc(OCC2(O)CN3CCC2CC3)cc1` (stereo unspecified) it was 93 to 95 °C. In the case of `CN(C)Cc1ccc(CSCCNC2=NS(=O)(=O)N=C2N(C)C)o1` it was 139 to 142 °C; in that of `O=C(OCc1ccc(Cl)cc1)C(=C1NCCCS1)[N+](=O)[O-]`, 119 to 120 °C. Turning to `COC(=O)c1cc(SCc2ccccc2)c(Cc2ccccc2)c(S(N)(=O)=O)c1`, the melting point is 139 to 140 °C.

Compound `CCC(CC)Oc1cc(C)nc2c1nc(N)n2-c1c(C)cc(C)cc1C` had a melting point of 159 to 161 °C. The result for `CC(=O)OCc1nc2cc(Cl)c(CBr)cc2c(=O)[nH]1` reads 190 to 195 °C; that for `CCNC(=O)c1ccc(N2CCN(Cc3cc(C)c4c(c3)NC(=O)C(C)O4)CC2)c(F)c1` (stereo unspecified), 242 to 245 °C. Compound `CCNC(=O)Nc1ccc(-c2sc3c(c2CN(C)CCOC)c(=O)n(-c2ccc(OCCOC)c(OCCOC)c2)c(=O)n3Cc2c(F)cccc2F)cc1` registered a melting point of 206 to 208 °C.

Take `CC(C)c1[nH]c(C(=O)Nc2ccc(C(=O)O)cc2)c(C(C)C)c1C(C)C`: the melting point was greater than 300 °C.

In the case of `N=C(N)NCCCC(NC(=O)C1CCCN1C(=O)C(CCCCNC(=O)OCc1ccccc1)NC(=O)CNC(=O)OCc1ccccc1)C(=O)O` (stereo unspecified) (Cbz-GK(Cbz)PR-OH; configuration not given here), the melting point was 175 °C. `CC(NC(=O)OC(C)(C)C)C(=O)NO` (stereo unspecified) returned a melting point of 74 to 76 °C. In the case of `CC(C)Cn1c(CNC(=O)OC(C)(C)C)c(-c2ccc(F)cc2)c2cc(/C=C/C(=O)O)ccc2c1=O` it was 201 to 202 °C; in that of `COc1nc(C)nc(NNC(N)=NS(=O)(=O)c2ccccc2OC(F)(F)F)n1`, 245 °C. In turn, `CCOC(=O)c1nc2n(c(=O)c1O)CCC=C2c1ccccc1` yielded a melting point of 151 °C. In turn, `N#Cc1cc(NC(=O)c2cc3ccccc3s2)ccc1N1CCC(O)CC1` yielded a melting point of 224 to 225 °C. As for `CC(C)C[C@H](NC(=O)OCc1ccccc1)C(=O)N[C@@H](Cc1ccccc1)C(=O)CSc1ccccc1`, the melting point is 105 to 106 °C.

The compound `CCc1cc2c(O)cc(=O)oc2cc1OC` gave a melting point of 174 to 175 °C. For `CC(C)NC(=O)c1cnc(N2CCC(n3c(=O)oc4ccccc43)CC2)c(Cl)c1`, the melting point was in the range of 162 to 168 °C. In turn, `CSc1[nH]cc(Cc2ccccc2)c1[N+](=O)[O-]` showed a melting point of 190 to 192 °C.

The compound `O=C(O)/C=C/c1ccc(C(c2cc(F)ccc2F)S(=O)(=O)c2ccc(Cl)cc2)nc1` (stereo unspecified) yielded a melting point of 236 to 238 °C. In the case of `COc1ccc(C(=O)CSc2cccc(OC)c2)cc1` it was 53 to 54 °C; in that of `CCC12CCC3C4CCC(OC(C)=O)=CC4=CCC3C1CCC2OC(C)=O` (stereo unspecified), 148 to 156 °C. `Cc1onc(-c2ccc(-c3cscn3)cc2)c1-c1ccc(S(N)(=O)=O)cc1` showed a melting point of 112 to 115 °C. As for `COc1ccc2[nH]cc(C3=CCN(C)CC3)c2n1`, the melting point came out at 203 °C.
